From patent publication US7112598B2, “κ opioid receptor agonist comprising 2-phenylbenzothiazoline derivative” (Santen Pharmaceutical Co., Ltd., priority 2002, dated 2006)
Structures can show the parent of a compound that is named as a salt.

What follows are compounds tested against human κ opioid receptor (Homo sapiens, UniProt P41145) (assay: κ opioid receptor agonist activity test in GTP binding activity measurement system ([35S]GTPγS binding)). Conditions: test compound concentration 10^−9 M; binding of 10^−6 M (−)-U50488 = 100%; human κ opioid receptor membrane preparation; average of duplicate.
Assay type: biochemical
Procedure: 1. κ Opioid Receptor Agonist Activity Tests in GTP Binding Activity Measurement System
Jinmin Zhu et al. reported a method of evaluating agonist activities of drugs on a κ opioid receptor wherein guanosine 5′-triphosphate (GTP) radiolabelled with a human κ opioid receptor is used in J. Pharmaco. Exp. Ter., 282, 676–684 (1997). κ opioid receptor agonist activities (actions) of test compounds were evaluated according to the method described in the above-mentioned literature.
N-2-Hydroxyethylpiperazine-N′-2-ethanesulfonic acid (HEPES, 4.77 g), magnesium chloride hexahydrate (2.03 g), sodium chloride (5.84 g), disodium […] (EDTA•2Na, 0.37 g), DL-dithiothreitol (DTT, 0.15 g) and bovine serum albumin (BSA, 1.0 g) were dissolved in ultrapure water, pH was adjusted to 7.4 with sodium hydroxide, and further ultrapure water was added to the mixture so that a total amount was one liter to prepare a incubation buffer.
Nine volume of the incubation buffer was added to one volume of dimethyl sulfoxide (DMSO) to prepare a 10% DMSO-incubation buffer.
Tris(hydroxymethyl)aminomethane hydrochloride (TRIZA-HCl, 66.1 g) and Tris(hydroxymethyl)aminomethane (TRIZA-Base, 9.7 g) were dissolved in ultrapure water so that a total amount was 10 liters to prepare a 50 mM Tris-hydrochloric acid buffer (pH 7.4).
A human κ opioid receptor membrane preparation (100 unit/ml) was diluted 60 times with the incubation buffer under ice-cold to prepare a human κ opioid receptor membrane preparation solution. The membrane preparation solution was preserved under ice-cold.
A test compound was dissolved in 100% DMSO to prepare a 10^−3 M test compound solution, and then the incubation buffer was added to the 10^−3 M test compound solution to prepare a 10^−4 M test compound solution. Next, the 10% dimethyl sulfoxide-incubation buffer was added to the 10^−4 M test compound solution to prepare a 10^−5 M, 10^−6 M, 10^−7 M, 10^−8 M or 10^−9 M test compound solution.
A drug (−)-U50488 (J. Pharmacol. Exp. Ther., 224, 7–12 (1983)), which is known as a κ opioid receptor agonist, was used as a positive control drug in the tests.
(−)-U-50488 was dissolved in 100% DMSO to prepare a 10^−3 M positive control drug solution, and then the incubation buffer was added to the 10^−3 M positive control drug solution to prepare a 10^−4 M positive control drug solution. Next, the 10% DMSO-incubation buffer was added to the 10^−4 M positive control drug solution to prepare a 10^−6 M positive control drug solution.
GDP was dissolved in ultrapure water to prepare a 10^−3 M GDP solution, and the incubation buffer was added to the 10^−3 M GDP solution to prepare a 10^−5 M GDP solution.
10^−3 M [^35S]GTPγS was diluted with the incubation buffer to prepare 10^−9 M radiolabelled reagent.
• 1. The incubation buffer (50 μl), the 10^−5 M GDP solution (50 μl), the human κ opioid receptor membrane preparation solution (300 μl), the test compound solution and the 10^−9 M radiolabelled reagent (50 μl) were put into a glass tube, and then the mixture was incubated at 30° C. for 60 minutes. • 2. The 50 mM Tris-hydrochloric acid buffer (pH 7.4) was added to the mixture to stop the reaction, the reaction mixture was suction-filtered with a GF/B filter, and then the residue on the GF/B filter was washed with the 50 mM Tris-hydrochloric acid buffer (3 ml) three times. • 3. The GF/B filter was air-dried, and then the residue on the GF/B filter was taken out with an antomatic dispenser and transfered into a vial. • 4. Scintisol EX-H (5 ml) was introduced into the vial to prepare a sample solution, and then radioactivity in the sample solution was measured with a liquid scintillation counter for one minute. The radioactivity was expressed in “cpm” (counts per minute). Calculation Formula of κ Opioid Receptor Agonist Activity
Each agonist activity of the test compound on the κ opioid receptor was expressed in [^35S]GTPγS binding % when [^35S]GTPγS binding of 10^−6 M (−)-U50488 was 100%. […]

Chain of human κ opioid receptor (P41145 whole entry): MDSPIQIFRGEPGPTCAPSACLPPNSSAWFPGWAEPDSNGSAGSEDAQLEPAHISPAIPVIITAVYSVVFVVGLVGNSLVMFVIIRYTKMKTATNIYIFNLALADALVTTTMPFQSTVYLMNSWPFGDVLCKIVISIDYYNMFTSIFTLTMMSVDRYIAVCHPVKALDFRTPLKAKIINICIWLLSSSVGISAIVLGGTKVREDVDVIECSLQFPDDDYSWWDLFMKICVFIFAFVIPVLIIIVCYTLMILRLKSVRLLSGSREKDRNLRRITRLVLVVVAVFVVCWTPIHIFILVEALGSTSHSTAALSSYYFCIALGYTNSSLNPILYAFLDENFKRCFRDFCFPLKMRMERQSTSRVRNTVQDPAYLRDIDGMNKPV

Going from `COc1ccc(OCCCN2CC[C@H](O)C2)c(C2Sc3cc(Cl)ccc3N2C(C)=O)c1` (stereo partly drawn) [Compound No. 3-14, 3-Acetyl-6-chloro-2-[2-(3-((3S)-hydroxyazolan-1-yl)propoxy)-5-methoxyphenyl]benzothiazoline Hydrochloride] to `COc1ccc(OCCCN2CCC[C@H]2CO)c(C2Sc3cc(Cl)ccc3N2C(C)=O)c1` (stereo partly drawn) [Compound No. 3-12, 3-Acetyl-6-chloro-2-[2-(3-((2S)-2-hydroxymethylazolan-1-yl)propoxy)-5-methoxyphenyl]benzothiazoline Hydrochloride], the “[^35S]GTP γ S binding %” value rises from 59.8% to 75.6%.

First: COc1ccc(OCCCN(C(C)C)C(C)C)c(C2Sc3cc(Cl)ccc3N2C(C)=O)c1 (single isomer, unassigned; (+)) [Compound No. 9-11, (+)-3-Acetyl-6-chloro-2-[2-(3-(N,N-diisopropylamino)propoxy)-5-methoxyphenyl]benzothiazoline Hydrochloride]
Second: CCN(CCCOc1ccc(OC)cc1C1Sc2cc(Cl)ccc2N1C(C)=O)C(C)C (single isomer, unassigned; (+)) [Compound No. 9-10, (+)-3-Acetyl-6-chloro-2-[2-(3-(N-ethyl-N-isopropylamino)propoxy)-5-methoxyphenyl]benzothiazoline Hydrochloride]
The “[^35S]GTP γ S binding %” value of the first is lower: 55.0% for the first, 116.8% for the second.

First: COc1ccc(OCCCN(C)CCO)c(C2Sc3cc(Cl)ccc3N2C(C)=O)c1 (single isomer, unassigned; (+)) [Compound No. 9-16, (+)-3-Acetyl-6-chloro-2-[2-(3-(N-(2-hydroxyethyl)-N-methylamino)-propoxy)-5-methoxyphenyl]benzothiazoline Hydrochloride]
Second: COc1ccc(OCCCN(CCO)CC(C)C)c(C2Sc3cc(Cl)ccc3N2C(C)=O)c1 (stereo not drawn) [Compound No. 3-11, 3-Acetyl-6-chloro-2-[2-(3-(N-(2-hydroxyethyl)-N-(2-methylpropyl)-amino)propoxy)-5-methoxyphenyl]benzothiazoline Hydrochloride]
The “[^35S]GTP γ S binding %” value of the first is higher: 57.2% for the first, 53.7% for the second.

Going from `COc1ccc(OCCCN(Cc2cccs2)C(C)C)c(C2Sc3cc(Cl)ccc3N2C(C)=O)c1` (single isomer, unassigned; (+)) [Compound No. 9-4, (+)-3-Acetyl-6-chloro-2-[2-(3-(N-isopropyl-N-(thiophen-2-ylmethyl)-amino)propoxy)-5-methoxyphenyl]benzothiazoline Hydrochloride] to `COc1ccc(OCCCN(CCO)C(C)C)c(C2Sc3ccccc3N2C(C)=O)c1` (single isomer, unassigned; (+)) [Compound No. 11-3, (+)-3-Acetyl-2-[2-(3-(N-(2-hydroxyethyl)-N-isopropylamino)-propoxy)-5-methoxyphenyl]benzothiazoline Hydrochloride], the “[^35S]GTP γ S binding %” value rises from 72.1% to 85.1%.

For `COc1ccc(OCCCN(CCO)C(C)C)c(C2Sc3ccc(C(F)(F)F)cc3N2C(C)=O)c1` (stereo not drawn) [Compound No. 4-2, 3-Acetyl-2-[2-(3-(N-(2-hydroxyethyl)-N-isopropylamino)propoxy)-5-methoxyphenyl]-5-trifluoromethylbenzothiazoline Hydrochloride], the “[^35S]GTP γ S binding %” value was 65.1%.

Same assay, conditions: test compound concentration 10^−9 M; binding of 10^−6 M (−)-U50488 = 100%; human κ opioid receptor membrane preparation; average of duplicate; Hydrochloride

First: COc1ccc(OCCCN(CCO)C(C)C)c(C2Sc3cc(Cl)ccc3N2C(C)=O)c1 (stereo not drawn) [Compound No. 3-2, 3-Acetyl-6-chloro-2-[2-(3-(N-(2-hydroxyethyl)-N-isopropylamino)-propoxy)-5-methoxyphenyl]benzothiazoline Hydrochloride]
Second: COCCN(CCCOc1ccc(OC)cc1C1Sc2cc(Cl)ccc2N1C(C)=O)C(C)C.Cl (single isomer, unassigned; (+)) [Compound No. 9-1, (+)-3-Acetyl-6-chloro-2-[2-(3-(N-isopropyl-N-(2-methoxyethyl)amino)-propoxy)-5-methoxyphenyl]benzothiazoline Hydrochloride]
The “[^35S]GTP γ S binding %” value of the first is lower: 66.5% for the first, 93.2% for the second.

Compared with `COc1ccc(OCCCN(CCO)C(C)C)c(C2Sc3cc(Cl)ccc3N2C(C)=O)c1` (single isomer, unassigned; (+)) [Compound No. 9-2, (+)-3-Acetyl-6-chloro-2-[2-(3-(N-(2-hydroxyethyl)-N-isopropylamino)-propoxy)-5-methoxyphenyl]benzothiazoline Hydrochloride], `COCCN(CCCOc1ccc(OC)cc1C1Sc2cc(Cl)ccc2N1C(C)=O)C(C)C.Cl` (single isomer, unassigned; (-)) [Compound No. 10-1, (−)-3-Acetyl-6-chloro-2-[2-(3-(N-isopropyl-N-(2-methoxyethyl)amino)-propoxy)-5-methoxyphenyl]benzothiazoline Hydrochloride] is lower in “[^35S]GTP γ S binding %” value: 103.9% for the first, 50.5% for the second.

Going from `COc1ccc(OCCCN(Cc2ccco2)C(C)C)c(C2Sc3cc(Cl)ccc3N2C(C)=O)c1` (single isomer, unassigned; (+)) [Compound No. 9-5, (+)-3-Acetyl-6-chloro-2-[2-(3-(N-(furan-2-ylmethyl)-N-isopropylamino)propoxy)-5-methoxyphenyl]benzothiazoline Hydrochloride] to `COc1ccc(OCCCN(CCO)C(C)C)c(C2Sc3cc(Cl)ccc3N2C(C)=O)c1` (single isomer, unassigned; (-)) [Compound No. 10-2, (−)-3-Acetyl-6-chloro-2-[2-(3-(N-(2-hydroxyethyl)-N-isopropylamino)-propoxy)-5-methoxyphenyl]benzothiazoline Hydrochloride], the “[^35S]GTP γ S binding %” value falls from 132.5% to 65.8%.

Going from `COc1ccc(OCCCN(Cc2ccco2)C(C)C)c(C2Sc3cc(Cl)ccc3N2C(C)=O)c1` (stereo not drawn) [Compound No. 3-38, 3-Acetyl-6-chloro-2-[2-(3-(N-(furan-2-ylmethyl)-N-isopropylamino)-propoxy)-5-methoxyphenyl]benzothiazoline Hydrochloride] to `CCOCCN(CCCOc1ccc(OC)cc1C1Sc2cc(Cl)ccc2N1C(C)=O)C(C)C` (single isomer, unassigned; (-)) [Compound No. 10-3, (−)-3-Acetyl-6-chloro-2-[2-(3-(N-(2-ethoxyethyl)-N-isopropylamino)-propoxy)-5-methoxyphenyl]benzothiazoline Hydrochloride], the “[^35S]GTP γ S binding %” value falls from 58.4% to 55.7%.

Same assay, conditions: test compound concentration 10^−9 M; binding of 10^−6 M (−)-U50488 = 100%; human κ opioid receptor membrane preparation; average of duplicate; read-out: [^35S]GTP γ S binding %

`COCCN(CCCOc1ccc(OC)cc1C1Sc2ccccc2N1C(C)=O)C(C)C` (stereo not drawn) [Compound No. 8-1, 3-Acetyl-2-[2-(3-(N-isopropyl-N-(2-methoxyethyl)amino)propoxy)-5-methoxyphenyl]benzothiazoline Hydrochloride] gave an activation at 0.001 µM of 103%.

What follows are compounds tested on mouse acetic acid writhing (assay: Antinociceptive action test by mouse acetic acid writhing method). Conditions: 30 mg/kg oral, 20 min before 0.7% acetic acid i.p., writhing counted 10 to 20 minutes after acetic acid, vs vehicle group, average of seven samples, Hydrochloride, 30 mg/kg.
Assay type: in vivo
Procedure: 2. Antinociceptive Action Tests by Mouse Acetic Acid Writhing Method
Accordingly, antinociceptive action tests of test compounds were carried out using the mouse acetic acid writhing method, and analgesic effects of the test compounds were evaluated.
Twenty minutes after oral administration of the test compound (30 mg/kg), the 0.7% acetic acid solution was administered intraperitoneally in a rate of 0.1 ml per 10 g of mouse weight.
Inhibition rates were calculated according to the following equation.
The antinociceptive action of the test compound was expressed in an inhibition rate to writhing numbers of a vehicle group.

For `COc1ccc(OCCCN(CCO)C(C)C)c(C2Sc3cc(Cl)ccc3N2C(C)=O)c1` (stereo not drawn) [Compound No. 3-2, 3-Acetyl-6-chloro-2-[2-(3-(N-(2-hydroxyethyl)-N-isopropylamino)-propoxy)-5-methoxyphenyl]benzothiazoline Hydrochloride], the “Inhibition rate (%)” value was 76.1%.
For `COc1ccc(OCCCN(CCO)C(C)C)c(C2Sc3cc(Cl)ccc3N2C(C)=O)c1` (single isomer, unassigned; (+)) [Compound No. 9-2, (+)-3-Acetyl-6-chloro-2-[2-(3-(N-(2-hydroxyethyl)-N-isopropylamino)-propoxy)-5-methoxyphenyl]benzothiazoline Hydrochloride], the “Inhibition rate (%)” value was 81.2%.

Same assay, conditions: 30 mg/kg oral, 20 min before 0.7% acetic acid i.p., writhing counted 10 to 20 minutes after acetic acid, vs vehicle group, average of seven samples, read-out: Inhibition rate (%)

Work on `COCCN(CCCOc1ccc(OC)cc1C1Sc2cc(Cl)ccc2N1C(C)=O)C(C)C.Cl` (single isomer, unassigned; (+)) [Compound No. 9-1, (+)-3-Acetyl-6-chloro-2-[2-(3-(N-isopropyl-N-(2-methoxyethyl)amino)-propoxy)-5-methoxyphenyl]benzothiazoline Hydrochloride] yielded an inhibition in vivo at 30 mg/kg of 97.7%.
